Data: article PMC11426533 (PLOS Pathogens, 2024)

Legend:
[1] = biological target: T1, ChiA (N-terminally trimmed version) (Clostridium perfringens, UniProt F8UNI5)
T1 construct: gene CP4_3455

[2] = biological target: T2, ChiB (Clostridium perfringens, UniProt F8UNI4)
T2 construct: gene CP4_3454

[3] = biological target: T1, ChiA (N-terminally trimmed version); remark: listed apart in the source

T1 sequence (F8UNI5 46-611 limits assumed): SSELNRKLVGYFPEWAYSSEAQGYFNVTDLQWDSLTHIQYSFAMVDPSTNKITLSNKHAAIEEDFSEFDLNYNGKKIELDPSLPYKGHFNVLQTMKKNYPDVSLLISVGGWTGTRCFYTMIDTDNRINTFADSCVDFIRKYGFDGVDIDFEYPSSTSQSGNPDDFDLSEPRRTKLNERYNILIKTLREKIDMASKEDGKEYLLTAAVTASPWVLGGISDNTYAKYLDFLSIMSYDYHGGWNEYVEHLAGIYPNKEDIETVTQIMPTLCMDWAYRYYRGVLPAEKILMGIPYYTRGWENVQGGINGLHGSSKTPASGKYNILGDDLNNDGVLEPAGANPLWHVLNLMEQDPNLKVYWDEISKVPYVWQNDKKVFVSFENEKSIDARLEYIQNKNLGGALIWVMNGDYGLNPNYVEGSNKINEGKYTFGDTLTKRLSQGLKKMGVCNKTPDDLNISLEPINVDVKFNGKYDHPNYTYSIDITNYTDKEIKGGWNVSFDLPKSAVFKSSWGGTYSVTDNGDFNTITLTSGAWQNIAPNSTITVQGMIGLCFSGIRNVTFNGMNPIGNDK
T2 sequence (F8UNI4 1-599): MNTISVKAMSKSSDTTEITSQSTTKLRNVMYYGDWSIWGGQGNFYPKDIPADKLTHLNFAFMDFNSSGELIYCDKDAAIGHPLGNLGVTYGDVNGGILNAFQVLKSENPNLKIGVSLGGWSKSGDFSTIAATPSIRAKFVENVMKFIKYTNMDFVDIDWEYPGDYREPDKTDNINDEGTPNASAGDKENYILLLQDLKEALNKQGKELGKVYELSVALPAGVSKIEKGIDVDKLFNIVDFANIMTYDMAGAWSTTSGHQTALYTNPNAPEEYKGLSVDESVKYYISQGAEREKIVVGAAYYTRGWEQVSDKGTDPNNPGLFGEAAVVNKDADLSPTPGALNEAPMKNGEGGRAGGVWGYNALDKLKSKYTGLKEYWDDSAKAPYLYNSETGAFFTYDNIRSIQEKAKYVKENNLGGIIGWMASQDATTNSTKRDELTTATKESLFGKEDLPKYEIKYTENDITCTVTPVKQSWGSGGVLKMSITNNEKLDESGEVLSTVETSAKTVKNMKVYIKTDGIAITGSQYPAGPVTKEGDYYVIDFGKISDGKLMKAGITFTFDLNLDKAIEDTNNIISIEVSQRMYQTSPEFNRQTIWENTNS

Compound | X-ray co-crystal structure, 1.30 Å [1] | X-ray co-crystal structure, 1.85 Å [2] | X-ray crystal structure by soaking, 1.35 Å [3]
N[C@H]1[C@H](O[C@H]2[C@H](O)[C@@H](N)[C@H](O[C@H]3[C@H](O)[C@@H](N)[C@H](O[C@H]4[C@H](O)[C@@H](N)[C@H](O[C@H]5[C@H](O)[C@@H](N)[C@H](O[C@H]6[C@H](O)[C@@H](N)C(O)O[C@@H]6CO)O[C@@H]5CO)O[C@@H]4CO)O[C@@H]3CO)O[C@@H]2CO)O[C@H](CO)[C@@H](O)[C@@H]1O (stereo partly drawn) [chitosan hexamer] | The crystal of ChiA in complex with the chitinase inhibitor chitosan | – | –
Cn1cnc2c1c(=O)n(CCCn1c(=O)c3c(ncn3C)n(C)c1=O)c(=O)n2C [Bisdionin C] | – | The crystal of ChiB in complex with the chitinase inhibitor Bisdionin C | The crystal of ChiA in complex with the chitinase inhibitor Bisdionin C
